In brackets after ≈: the same amount, converted by molar mass.
Assays:
Enterobacter cloacae [1] = assay: Antimicrobial activity against Enterobacter cloacae 1321E after 18 hrs; type: functional
Enterobacter cloacae [2] = assay: Antimicrobial activity against Enterobacter cloacae P99 after 18 hrs; type: functional
Klebsiella oxytoca = assay: Antimicrobial activity against Klebsiella oxytoca 1082E after 18 hrs; type: functional
Streptococcus pyogenes [3] = assay: Antimicrobial activity against Streptococcus pyogenes 77A isolate after 18 hrs; type: functional
Pseudomonas aeruginosa [4] = assay: Antimicrobial activity against Pseudomonas aeruginosa 1771 isolate after 18 hrs; type: functional
Staphylococcus aureus [5] = assay: Antimicrobial activity against Staphylococcus aureus SG511 isolate after 18 hrs; type: functional
Klebsiella aerogenes = assay: Antimicrobial activity against Klebsiella aerogenes 1522E after 18 hrs; type: functional
SK-MEL-2 = assay: Cytotoxicity against human SK-MEL-2 cells; type: functional; conditions: read-out: ED50 (the source's name)
Staphylococcus aureus [6] = assay: Antimicrobial activity against Staphylococcus aureus 285 isolate after 18 hrs; type: functional
HCT-15 = assay: Cytotoxicity against human HCT15 cells; type: functional; conditions: read-out: ED50 (the source's name)
Enterococcus faecium = assay: Antimicrobial activity against Streptococcus faecium MD8b isolate after 18 hrs; type: functional
Escherichia coli [7] = assay: Antimicrobial activity against Escherichia coli DC0 isolate after 18 hrs; type: functional
Pseudomonas aeruginosa [8] = assay: Antimicrobial activity against Pseudomonas aeruginosa 9027 isolate after 18 hrs; type: functional
Pseudomonas aeruginosa [9] = assay: Antimicrobial activity against Pseudomonas aeruginosa 1771M isolate after 18 hrs; type: functional
Escherichia coli [10] = assay: Antimicrobial activity against Escherichia coli TEM isolate after 18 hrs; type: functional
Escherichia coli [11] = assay: Antimicrobial activity against Escherichia coli DC2 isolate after 18 hrs; type: functional
Escherichia coli [12] = assay: Antimicrobial activity against Escherichia coli 078 isolate after 18 hrs; type: functional
Streptococcus pyogenes [13] = assay: Antimicrobial activity against Streptococcus pyogenes 308A isolate after 18 hrs; type: functional
Salmonella typhimurium = assay: Antimicrobial activity against Salmonella Typhimurium after 18 hrs; type: functional, Salmonella enterica subsp. enterica serovar Typhimurium; conditions: Salmonella enterica
SK-OV-3 = assay: Cytotoxicity against human SKOV3 cells; type: functional; conditions: read-out: ED50 (the source's name)
Escherichia coli [14] = assay: Antimicrobial activity against Escherichia coli 1507E isolate after 18 hrs; type: functional
A549 = assay: Cytotoxicity against human A549 cells; type: functional; conditions: read-out: ED50 (the source's name)
XF498 = assay: Cytotoxicity against human XF498 cells; type: functional; conditions: read-out: ED50 (the source's name)
Staphylococcus aureus [15] = assay: Antimicrobial activity against Staphylococcus aureus 503 isolate after 18 hrs; type: functional
Pseudomonas aeruginosa [16] = assay: Antimicrobial activity against Pseudomonas aeruginosa 1592E isolate after 18 hrs; type: functional

| SMILES | MIC (Enterobacter cloacae [1]) | MIC (Enterobacter cloacae [2]) | MIC (Klebsiella oxytoca) | MIC (Streptococcus pyogenes [3]) | MIC (Pseudomonas aeruginosa [4]) | MIC (Staphylococcus aureus [5]) | MIC (Klebsiella aerogenes) | EC50 (SK-MEL-2) | MIC (Staphylococcus aureus [6]) | EC50 (HCT-15) | MIC (Enterococcus faecium) | MIC (Escherichia coli [7]) | MIC (Pseudomonas aeruginosa [8]) | MIC (Pseudomonas aeruginosa [9]) | MIC (Escherichia coli [10]) | MIC (Escherichia coli [11]) | MIC (Escherichia coli [12]) | MIC (Streptococcus pyogenes [13]) | MIC (Salmonella typhimurium) | EC50 (SK-OV-3) | other results |
| --- | --- | --- | --- | --- | --- | --- | --- | --- | --- | --- | --- | --- | --- | --- | --- | --- | --- | --- | --- | --- | --- |
| C=C(CC[C@@H](C)[C@H]1C[C@H](O)[C@H]2[C@@H]3C[C@@H](O)[C@H]4C[C@@H](O)CC[C@]4(C)[C@H]3CC[C@@]21C)[C@H](C)CO [CERTONARDOSTEROL E] | > 25 µg/mL | > 25 µg/mL | > 25 µg/mL | > 25 µg/mL | > 25 µg/mL | > 25 µg/mL | > 25 µg/mL | 4.1 µg/mL (≈ 9.14 µM) | > 25 µg/mL | 4.2 µg/mL (≈ 9.36 µM) | > 25 µg/mL | > 25 µg/mL | > 25 µg/mL | > 25 µg/mL | > 25 µg/mL | > 25 µg/mL | > 25 µg/mL | 25 µg/mL (≈ 55.7 µM) | > 25 µg/mL | 4.9 µg/mL (≈ 10.9 µM) | MIC (Escherichia coli [14]): > 25 µg/mL; EC50 (A549): 3.9 µg/mL (≈ 8.69 µM); EC50 (XF498): 4.1 µg/mL (≈ 9.14 µM); MIC (Staphylococcus aureus [15]): > 25 µg/mL; MIC (Pseudomonas aeruginosa [16]): > 25 µg/mL |
| CC(C)[C@@H](O)CC[C@@H](C)[C@H]1C[C@@H](O)[C@H]2[C@@H]3C[C@H](O)[C@H]4C[C@@H](O)CC[C@]4(C)[C@H]3CC[C@@]21C [CERTONARDOSTEROL F] | > 25 µg/mL | > 25 µg/mL | > 25 µg/mL | 25 µg/mL (≈ 57.3 µM) | 25 µg/mL (≈ 57.3 µM) | > 25 µg/mL | > 25 µg/mL | 3.8 µg/mL (≈ 8.7 µM) | > 25 µg/mL | 5.5 µg/mL (≈ 12.6 µM) | > 25 µg/mL | > 25 µg/mL | > 25 µg/mL | > 25 µg/mL | > 25 µg/mL | > 25 µg/mL | > 25 µg/mL | 25 µg/mL (≈ 57.3 µM) | > 25 µg/mL | 4.4 µg/mL (≈ 10.1 µM) | MIC (Escherichia coli [14]): > 25 µg/mL; EC50 (A549): 3.8 µg/mL (≈ 8.7 µM); EC50 (XF498): 4.3 µg/mL (≈ 9.85 µM); MIC (Staphylococcus aureus [15]): > 25 µg/mL; MIC (Pseudomonas aeruginosa [16]): 25 µg/mL (≈ 57.3 µM) |
| CC(C)[C@@H](O)/C=C/[C@@H](C)[C@H]1C[C@@H](O)[C@H]2[C@@H]3C[C@H](O)[C@H]4C[C@@H](O)CC[C@]4(C)[C@H]3CC[C@@]21C [CERTONARDOSTEROL G] | > 25 µg/mL | > 25 µg/mL | > 25 µg/mL | > 25 µg/mL | 12.5 µg/mL (≈ 28.8 µM) | > 25 µg/mL | > 25 µg/mL | 3.4 µg/mL (≈ 7.82 µM) | > 25 µg/mL | 4 µg/mL (≈ 9.2 µM) | > 25 µg/mL | > 25 µg/mL | > 25 µg/mL | 25 µg/mL (≈ 57.5 µM) | > 25 µg/mL | > 25 µg/mL | > 25 µg/mL | 12.5 µg/mL (≈ 28.8 µM) | > 25 µg/mL | 3.6 µg/mL (≈ 8.28 µM) | MIC (Escherichia coli [14]): > 25 µg/mL; EC50 (A549): 3.6 µg/mL (≈ 8.28 µM); EC50 (XF498): 3.7 µg/mL (≈ 8.51 µM); MIC (Staphylococcus aureus [15]): > 25 µg/mL; MIC (Pseudomonas aeruginosa [16]): > 25 µg/mL |
| CC(/C=C/[C@@H](C)[C@H]1C[C@@H](O)[C@H]2[C@@H]3C[C@H](O)[C@H]4C[C@@H](O)CC[C@]4(C)[C@H]3CC[C@@]21C)CO (stereo not given in full) [CERTONARDOSTEROL H] | > 25 µg/mL | > 25 µg/mL | > 25 µg/mL | > 25 µg/mL | 25 µg/mL (≈ 59.4 µM) | > 25 µg/mL | > 25 µg/mL | 6.4 µg/mL (≈ 15.2 µM) | > 25 µg/mL | 10.6 µg/mL (≈ 25.2 µM) | > 25 µg/mL | > 25 µg/mL | > 25 µg/mL | 25 µg/mL (≈ 59.4 µM) | > 25 µg/mL | > 25 µg/mL | > 25 µg/mL | 25 µg/mL (≈ 59.4 µM) | > 25 µg/mL | 9.4 µg/mL (≈ 22.3 µM) | MIC (Escherichia coli [14]): > 25 µg/mL; EC50 (A549): 7.1 µg/mL (≈ 16.9 µM); EC50 (XF498): 8.6 µg/mL (≈ 20.4 µM); MIC (Staphylococcus aureus [15]): > 25 µg/mL; MIC (Pseudomonas aeruginosa [16]): > 25 µg/mL |
| C/C(=C\[C@@H](C)[C@H]1C[C@@H](O)[C@@H]2[C@]1(C)CC[C@@H]1[C@@]3(C)CC[C@H](O)C[C@@H]3[C@@H](O)C[C@]12O)[C@H](C)[C@@H](C)CO [CERTONARDOSTEROL I] | > 25 µg/mL | > 25 µg/mL | > 25 µg/mL | 25 µg/mL (≈ 52.2 µM) | 12.5 µg/mL (≈ 26.1 µM) | > 25 µg/mL | > 25 µg/mL | 5.3 µg/mL (≈ 11.1 µM) | > 25 µg/mL | 6.3 µg/mL (≈ 13.2 µM) | > 25 µg/mL | > 25 µg/mL | > 25 µg/mL | 25 µg/mL (≈ 52.2 µM) | > 25 µg/mL | > 25 µg/mL | > 25 µg/mL | 25 µg/mL (≈ 52.2 µM) | > 25 µg/mL | 8.8 µg/mL (≈ 18.4 µM) | MIC (Escherichia coli [14]): > 25 µg/mL; EC50 (A549): 5.1 µg/mL (≈ 10.7 µM); EC50 (XF498): 7.3 µg/mL (≈ 15.2 µM); MIC (Staphylococcus aureus [15]): > 25 µg/mL; MIC (Pseudomonas aeruginosa [16]): > 25 µg/mL |
| C/C(=C\[C@@H](C)[C@H]1C[C@@H](O)[C@H]2[C@@H]3C[C@H](O)[C@H]4C[C@@H](O)CC[C@]4(C)[C@H]3CC[C@@]21C)[C@H](C)[C@@H](C)CO [CERTONARDOSTEROL J] | > 25 µg/mL | > 25 µg/mL | > 25 µg/mL | 25 µg/mL (≈ 54 µM) | 12.5 µg/mL (≈ 27 µM) | > 25 µg/mL | > 25 µg/mL | 7.1 µg/mL (≈ 15.3 µM) | > 25 µg/mL | 12.5 µg/mL (≈ 27 µM) | > 25 µg/mL | > 25 µg/mL | > 25 µg/mL | 25 µg/mL (≈ 54 µM) | > 25 µg/mL | > 25 µg/mL | > 25 µg/mL | 25 µg/mL (≈ 54 µM) | > 25 µg/mL | 10.3 µg/mL (≈ 22.3 µM) | MIC (Escherichia coli [14]): > 25 µg/mL; EC50 (A549): 8 µg/mL (≈ 17.3 µM); EC50 (XF498): 11.4 µg/mL (≈ 24.6 µM); MIC (Staphylococcus aureus [15]): > 25 µg/mL; MIC (Pseudomonas aeruginosa [16]): > 25 µg/mL |

From ChEMBL document CHEMBL1150678, “Bioactive sterols from the starfish Certonardoa semiregularis” (2003)
